Consider 28 compounds from patent publication US20260216169A1, “NAPHTHYLAMIDE COMPOUND, AND PREPARATION METHOD THEREFOR AND USE THEREOF” (SHENZHEN CHIPSCREEN BIOSCIENCES CO., LTD., priority 2022, published 2026).

Data set [1] can be described thus: Brain permeation assay in mice. The conditions noted are these: B/C, mouse, oral; female mice, 5 mg/kg intragastric, 4 h after administration; read-out: Brain permeation (ratio of compound concentration in brain tissue to concentration in plasma). The class given is in vivo. On the procedure:
The objective of this example was to test whether the compounds of the present disclosure are able to cross the blood-brain barrier (BBB). The compounds of the present disclosure were dissolved in a vehicle containing 5% dimethyl sulfoxide, 60% 1,3-propanediol, and 35% purified water, and intragastrically administered to B/C female mice aged 6 weeks (purchased from Guangdong Medical Laboratory Animal Center) at 5 mg/kg. The animals were sacrificed 4 h after the administration, and blood and brain tissue samples were collected. The blood samples were anticoagulated with K2-EDTA and centrifuged at 5000 rpm for 5 min to separate plasma. The brain tissue samples were accurately weighed and homogenized with a certain amount of phosphate-buffered saline (PBS) solution, and the biological samples were stored at −80° C. before analysis. After sample extraction, the compound concentration was determined using a liquid chromatography-tandem mass spectrometry (LC-MS/MS) system. Brain permeation was defined as the ratio of the compound concentration in brain tissue to the concentration in plasma.

The target in data set [2] is Aurora B kinase (Homo sapiens, UniProt Q96GD4). Briefly: HTRF KinEASE test of inhibitory activity against Aurora B kinase. The conditions noted are these: Carna kinase, substrate S2. The class given is biochemical. Details: purchased Carna 05-102. As for the experimental part: (§1) Preparation of working solutions of compounds in DMSO with gradient concentrations: 0.2 mM solutions of the compounds in DMSO were prepared and serially diluted with DMSO to form working solutions with 10 gradient concentrations (corresponding to final compound concentrations of 1000 nM, 300 nM, 100 nM, 30 nM, 10 nM, 3 nM, 1 nM, 0.3 nM, 0.1 nM, and 0.03 nM in the reaction system).
Chain of Aurora B kinase (Q96GD4 whole entry): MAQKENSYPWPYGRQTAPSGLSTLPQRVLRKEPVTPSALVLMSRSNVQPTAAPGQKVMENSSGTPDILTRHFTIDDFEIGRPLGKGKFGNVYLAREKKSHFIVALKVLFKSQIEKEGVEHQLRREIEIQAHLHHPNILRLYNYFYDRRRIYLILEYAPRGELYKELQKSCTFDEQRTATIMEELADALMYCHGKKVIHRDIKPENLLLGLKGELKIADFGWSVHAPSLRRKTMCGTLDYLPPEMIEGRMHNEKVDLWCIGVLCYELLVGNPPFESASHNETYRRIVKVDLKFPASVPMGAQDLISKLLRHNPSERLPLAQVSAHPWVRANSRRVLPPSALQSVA
Chain of Aurora B kinase (Q9NQS7 803-916 partner limits assumed): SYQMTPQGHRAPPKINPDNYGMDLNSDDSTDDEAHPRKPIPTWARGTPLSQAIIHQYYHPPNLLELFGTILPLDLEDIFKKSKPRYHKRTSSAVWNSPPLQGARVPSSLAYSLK
(§2) Tests of inhibitory activity against Aurora B kinase and VEGFR2: The half maximal inhibitory concentrations (IC50) of the compounds against Aurora B kinase and VEGFR2 were determined using HTRF KinEASE-TK kit (Cisbio, Cat #62TKOPEC) and HTRF KinEASE-STK kit (Cisbio, Cat #61ST2BLE). A 2× kinase & Metal solution (Aurora B/Cat #05-102 and VEGFR2/Cat #08-191, both purchased from Carna) and a 2× Substrate & ATP solution (for Aurora B and VEGFR2, substrates S2 and TK were used, respectively) were prepared according to the kit instructions. The working solutions of the test compounds with gradient concentrations were added to a 384-well plate at 25 nL/well, and 2.5 μL of the 2× kinase & Metal solution was added to each well. The plate was sealed with a plate-sealing film, well shaken, centrifuged, and then incubated at 25° C. for 10 min. Then, the 2× Substrate & ATP solution was added at 2.5 μL/well, and the plate was incubated again at 25° C. for 30 min. Finally, a 2× XL665 & Antibody kinase detection reaction solution was added at 5 μL/well. After the plate was incubated at 25° C. for 60 min, the fluorescence signals at wavelengths of 665 nm and 620 nm in each well were measured by a microplate reader.
(§3) The 665 nm/620 nm fluorescence signal ratio (X) of each well was calculated. With the compound-free well as a negative control (Y) and the enzyme-free well as a positive control (Z), the inhibition rate of the compound in each test well against the corresponding kinase was calculated using the formula: inhibition (%)=100%−(X−Z)/(Y−Z)×100%, and the half maximal inhibitory concentration (IC50) of each compound against the corresponding kinase was calculated by GraphPad 7.0 software.

In data set [3] the target is T1, VEGFR2 (Homo sapiens, UniProt P35968).
T1 construct: purchased Carna 08-191
T1 sequence (P35968 790-1356 limits assumed): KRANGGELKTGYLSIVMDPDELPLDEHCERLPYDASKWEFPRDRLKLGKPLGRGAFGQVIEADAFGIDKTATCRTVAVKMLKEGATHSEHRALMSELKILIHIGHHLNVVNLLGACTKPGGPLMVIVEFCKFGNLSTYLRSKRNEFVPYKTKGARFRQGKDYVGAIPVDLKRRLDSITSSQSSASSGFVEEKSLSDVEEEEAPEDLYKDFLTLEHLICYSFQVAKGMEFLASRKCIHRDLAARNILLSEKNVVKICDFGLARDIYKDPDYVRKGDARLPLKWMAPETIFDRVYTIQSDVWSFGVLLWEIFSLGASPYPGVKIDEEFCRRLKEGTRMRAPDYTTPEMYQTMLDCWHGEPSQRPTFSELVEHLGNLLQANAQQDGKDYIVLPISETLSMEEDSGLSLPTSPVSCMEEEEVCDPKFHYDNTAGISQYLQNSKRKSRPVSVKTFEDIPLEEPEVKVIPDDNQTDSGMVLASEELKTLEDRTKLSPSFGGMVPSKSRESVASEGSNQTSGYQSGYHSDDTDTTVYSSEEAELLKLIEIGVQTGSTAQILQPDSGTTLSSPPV
Nature of the data set: HTRF KinEASE test against VEGFR2, reported as relative selectivity IC50-VEGFR2/IC50-Aurora B. Type of data set: biochemical. The conditions noted are these: ratio of IC50 against VEGFR2 to IC50 against Aurora B. On the procedure: as §1, §2, §3
(TR-FRET usually uses a lanthanide donor and a delayed reading to cut background.)

Data set [4] concerns Molt-4 cells. Nature of the data set: Effects on tumor cell cycle, PI staining and flow cytometry. The class given is cell-based, human. Conditions: 48 h. The text has this:
When the activity of Aurora B kinase is inhibited in tumor cells, the arrangement and separation of chromosomes are blocked, leading to cytokinesis failure and the formation of tetraploid or polyploid cells. Moreover, severe genomic instability and mitotic catastrophe result in apoptosis. The intracellular DNA content can be mapped with propidium iodide (PI), a fluorescent dye that specifically binds to nucleic acid, so that cell states can be distinguished into sub-G0/G1 (apoptosis), G0/G1, S, G2/M (tetraploid), and polyploid states.
Experimental process: Molt-4 cells (human acute lymphoblastic leukemia cells, CRL-1582) were purchased from the American Type Culture Collection (ATCC). Molt-4 cells in the logarithmic growth phase were collected from suspension culture and counted. The cells were seeded into a 6-well plate at 10^6 cells/well and cultured overnight under normal conditions. The test compounds were prepared as 1 mM and 3 mM solutions in DMSO, and the solutions in DMSO were diluted 50-fold with culture medium. Finally, the above solutions were added to the culture system in a volume ratio of 1:19, achieving a final compound concentration of 1 μM or 3 μM in each well. After 48 h of incubation, the cells were collected by centrifugation. Each cell sample was resuspended in 300 μL of PBS, and the suspension was added dropwise to 700 μL of pre-cooled absolute ethanol. Then the mixture was gently inverted several times for thorough mixing to complete cell collection and fixation. The samples were left to stand at 4° C. for more than 12 h and then analyzed by flow cytometry.
A working dye solution was prepared by homogeneously mixing PBS, a 10 mg/mL PI stock solution, and a 10 mg/mL RNase A solution in a ratio of 1000:5:2. The fixed cell samples were centrifuged at 4° C. and 1000 rpm for 10 min. The supernatants were completely removed using a pipette, and the cells were washed twice with PBS and resuspended in the above working dye solution at […]. After incubation in a dark place at 37° C. for 30 min, the cells were filtered using a 200-mesh stainless steel strainer, and the filtrate was loaded onto a flow cytometer for cell cycle analysis (10,000 cells counted per sample).
Histograms showing DNA contents were obtained from the flow cytometry analysis, and the cell cycle distribution in each sample was analyzed using the flow cytometry data analysis software FlowJo. The mean (X) and standard deviation (SD) were calculated, and data were represented as X±SD. The apoptosis and the proportions of tetraploid and polyploid cells after Molt-4 cells were treated with different doses of the test compounds are shown in Table 3 below.
Background: Flow cytometry measures light scatter and fluorescence of single cells or particles in a stream.

On to `CCOc1ccc2c(Oc3ccc4c(C(=O)Nc5ccccc5N)cccc4c3)ccnc2c1` [Compound I-1], for which, in data set [1], the Kp at 4 h came out at 0.73.
For orientation: IC50 means the concentration that inhibits the measured activity by half. A high value points to weaker potency in that assay. For the compound `CCOc1ccc2c(Oc3ccc4c(C(=O)Nc5ccc(F)cc5N)cccc4c3)ccnc2c1` [Compound I-5], in data set [2], the 50% inhibitory concentration (IC50) amounted to 2.83 nM. Moreover, the “Selectivity for Aurora B IC50-VEGFR2/IC50-Aurora B” value (shortened to “Selectivity”) in data set [3] is listed as 49.6.
`CCOc1ccc2c(Oc3ccc4c(C(=O)Nc5ccc(F)c(F)c5N)cccc4c3)ccnc2c1` [Compound I-6] gave an IC50 in data set [2] of 3.18 nM. Moreover, the “Selectivity” value in data set [3] amounted to 18.64.
For `CC(C)Oc1ccc2c(Oc3ccc4c(C(=O)Nc5ccccc5N)cccc4c3)ccnc2c1` [Compound I-7], the concentration for half-maximal inhibition (IC50) in data set [2] was 417 nM. The “Selectivity” value in data set [3] worked out at 0.17.
In turn, `COc1ccc2c(Oc3ccc4c(C(=O)Nc5cc(F)c(F)c(F)c5N)cccc4c3)ccnc2c1` [Compound I-10] gave an IC50 in data set [2] of 3.52 nM. Further, the “Selectivity” value in data set [3] was found to be 13.34.
For `CCCOc1ccc2c(Oc3ccc4c(C(=O)Nc5ccccc5N)cccc4c3)ccnc2c1` [Compound I-11] the same measures were 33.9 nM and 0.78.
The like results for `CCCOc1ccc2c(Oc3ccc4c(C(=O)Nc5ccc(F)cc5N)cccc4c3)ccnc2c1` [Compound I-12] were, in that order, 19 nM and 5.12.
For `CCCCOc1ccc2c(Oc3ccc4c(C(=O)Nc5ccccc5N)cccc4c3)ccnc2c1` [Compound I-13] the same measures were 127 nM and 0.27.
The compound `CCCCOc1ccc2c(Oc3ccc4c(C(=O)Nc5ccc(C)cc5N)cccc4c3)ccnc2c1` [Compound I-14] returned a concentration for half-maximal inhibition (IC50) in data set [2] of 53.1 nM. Also, the “Selectivity” value in data set [3] amounted to 18.84.
Take `CCOc1ccc2c(Oc3ccc4c(C(=O)Nc5cc(F)ccc5N)cccc4c3)ccnc2c1` [Compound I-15]: in data set [1], the Kp at 4 h was 0.76.
In the case of `CCOc1cc(F)c2c(Oc3ccc4c(C(=O)Nc5ccccc5N)cccc4c3)ccnc2c1` [Compound I-17], in data set [2], the IC50 is 4.01 nM. In data set [3], the “Selectivity” value amounted to 8.16. Moreover, the Kp at 4 h in data set [1] was 0.6.
Take `CCOc1cc(F)c2c(Oc3ccc4c(C(=O)Nc5cccc(F)c5N)cccc4c3)ccnc2c1` [Compound I-18]: in data set [2], the half-inhibitory concentration (IC50) came to 6.89 nM. In addition, in data set [3], the “Selectivity” value is reported as 9.75.
For `CCOc1cc(F)c2c(Oc3ccc4c(C(=O)Nc5ccc(F)c(F)c5N)cccc4c3)ccnc2c1` [Compound I-19] the same measures were 5.62 nM and 9.08.
For the compound `CCOc1cc(F)c2c(Oc3ccc4c(C(=O)Nc5cc(F)ccc5N)cccc4c3)ccnc2c1` [Compound I-20], the Kp at 4 h in data set [1] is 0.67.
`O=C(NC1CC(F)(F)C1)c1cccc2cc(Oc3ccnc4cc(OCCOC(F)F)ccc34)ccc12` [Compound I-21]: the IC50 in data set [2] was found to be 2.12 nM. Also, the “Selectivity” value in data set [3] is recorded as 12.27.
For `COCCOc1ccc2c(Oc3ccc4c(C(=O)NC5CC(F)(F)C5)cccc4c3)ccnc2c1` [Compound I-23] the same measures were 1.24 nM and 9.49.
`COCCOc1ccc2c(Oc3ccc4c(C(=O)NC5CC6(COC6)C5)cccc4c3)ccnc2c1` [Compound I-24] showed a half-inhibitory concentration (IC50) in data set [2] of 1.7 nM. Further, the “Selectivity” value in data set [3] worked out at 109.61.
In turn, `COCCOc1ccc2c(Oc3ccc4c(C(=O)NC5CC6(CCC6)C5)cccc4c3)ccnc2c1` [Compound I-25] gave a half-inhibitory concentration (IC50) in data set [2] of 1.55 nM. Besides, in data set [3], the “Selectivity” value is listed as 38.05.
The like results for `COCCOc1ccc2c(Oc3ccc4c(C(=O)NC5CC(F)C5)cccc4c3)ccnc2c1` (stereo not drawn) [Compound I-27] were, in that order, 0.896 nM and 10.23.
For `Nc1c(F)cccc1NC(=O)c1cccc2cc(Oc3ccnc4cc(OCCOC(F)F)cc(F)c34)ccc12` [Compound I-28] the same measures were 4.12 nM and 9.68.
The like results for `Nc1c(NC(=O)c2cccc3cc(Oc4ccnc5cc(OCCF)ccc45)ccc23)ccc(F)c1F` [Compound I-32] were, in that order, 2.01 nM and 8.07.
Regarding `O=C(NC1CC(F)(F)C1)c1cccc2cc(Oc3ccnc4cc(OCCF)ccc34)ccc12` [Compound I-33], the concentration for half-maximal inhibition (IC50) in data set [2] turned out to be 2.65 nM. Besides, the “Selectivity” value in data set [3] was determined as 376.79.
For `O=C(NC1CCCCC1)c1cccc2cc(Oc3ccnc4cc(OCCF)ccc34)ccc12` [Compound I-35] the same measures were 5.26 nM and 9.55.
The like results for `COc1cc(F)c2c(Oc3ccc4c(C(=O)Nc5ccc(F)c(Cl)c5N)cccc4c3)ccnc2c1` [Compound I-36] were, in that order, 2.92 nM and 7.75.
As to `COc1cc(F)c2c(Oc3ccc4c(C(=O)Nc5ccc(F)c(F)c5N)cccc4c3)ccnc2c1` [Compound I-37], in data set [2], the IC50 is 2.63 nM. Also, the “Selectivity” value in data set [3] turned out to be 14.19. Further, in data set [4] (dose 1 μM), the “Apoptosis (%) DNA < 2N” value came to 22.55 ± 0.21%, the “Polyploid (%) DNA > 4N” value is reported as 55.25 ± 5.02%, the “Tetraploid (%) DNA = 4N” value was 4.68 ± 3.46% and the “Total (apoptosis + tetraploid + polyploid)” value came out at 82.48. Moreover, in data set [4] (dose 3 μM), the “Apoptosis (%) DNA < 2N” value is 23.75 ± 2.33%, the “Polyploid (%) DNA > 4N” value was 53.75 ± 4.17%, the “Tetraploid (%) DNA = 4N” value is 5.75 ± 3.15% and the “Total (apoptosis + tetraploid + polyploid)” value was 83.25. Also, the Kp at 4 h in data set [1] worked out at 0.6.
Regarding `O=C(NC1CC(F)(F)C1)c1cccc2cc(Oc3ccnc4cc(OCC(F)F)ccc34)ccc12` [Compound I-41], it took 2.22 nM to reach half-maximal inhibition in data set [2] (IC50). Also, the “Selectivity” value in data set [3] is given as 127.51.
For `CN(C)CCOc1ccc2c(Oc3ccc4c(C(=O)NC5CC(F)(F)C5)cccc4c3)ccnc2c1` [Compound I-42] the same measures were 3.86 nM and 13.9.
The like results for `CCOc1ccc2c(Oc3ccc4c(C(=O)Nc5cc(F)c(F)c(F)c5N)cccc4c3)ccnc2c1` [Compound I-44] were, in that order, 6.71 nM and 12.14.
